The source of these data is ChEMBL document CHEMBL1135954, “Opioid activity of 4-imidazolidinone positional analogues of Leu-Enkephalin” (Bioorg Med Chem Lett, 2002).

Assay [1] has as its target Kappa-type opioid receptor (Rattus norvegicus, UniProt P34975). Nature of the assay: Binding affinity towards Opioid receptor kappa 1 was determined using U69,593 as the radioligand.
The next assay addresses Mu-type opioid receptor (Rattus norvegicus, UniProt P33535).

pKi: −log10 of the molar value. Peptide text beside a SMILES is read from it. * marks the point of attachment. X1 = CC(C)C[C@H]1C(=O)NCN1*

Sequence of Kappa-type opioid receptor (P34975 whole entry): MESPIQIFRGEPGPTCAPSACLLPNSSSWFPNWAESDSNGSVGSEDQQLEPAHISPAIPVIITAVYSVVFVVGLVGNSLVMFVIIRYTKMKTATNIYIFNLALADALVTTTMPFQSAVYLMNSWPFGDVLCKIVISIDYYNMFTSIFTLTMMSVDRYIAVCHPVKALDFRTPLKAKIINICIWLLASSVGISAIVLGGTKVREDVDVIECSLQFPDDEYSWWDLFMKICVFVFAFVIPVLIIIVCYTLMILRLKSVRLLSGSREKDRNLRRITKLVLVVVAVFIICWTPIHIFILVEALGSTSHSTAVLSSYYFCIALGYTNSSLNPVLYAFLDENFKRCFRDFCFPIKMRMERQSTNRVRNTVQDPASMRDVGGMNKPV
Sequence of Mu-type opioid receptor (P33535 whole entry): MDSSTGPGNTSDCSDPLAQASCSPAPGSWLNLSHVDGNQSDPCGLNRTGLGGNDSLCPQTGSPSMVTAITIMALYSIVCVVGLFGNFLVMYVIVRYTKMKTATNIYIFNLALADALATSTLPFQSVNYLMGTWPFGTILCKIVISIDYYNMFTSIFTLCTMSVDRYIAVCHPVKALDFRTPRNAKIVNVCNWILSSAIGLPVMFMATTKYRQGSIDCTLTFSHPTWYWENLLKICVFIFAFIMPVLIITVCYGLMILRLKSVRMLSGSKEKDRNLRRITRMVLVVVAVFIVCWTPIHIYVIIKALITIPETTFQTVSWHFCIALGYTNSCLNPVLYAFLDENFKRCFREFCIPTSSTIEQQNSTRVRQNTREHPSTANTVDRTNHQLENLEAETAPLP

The term pKi denotes the negative decadic logarithm of the Ki, by convention in mol/L. Lower therefore signals a high Ki. Turning to `CC(C)C[C@@H](C(N)=O)N1CN(C(=O)CNC(=O)CNC(=O)[C@@H](N)Cc2ccc(O)cc2)[C@@H](Cc2ccccc2)C1=O`, the pKi in assay [1] is less than 5.00; at Mu-type opioid receptor, 5.59.

With `CNC(=O)[C@H](CC(C)C)N(C)C(=O)[C@H](Cc1ccccc1)NC(=O)CNC(=O)CNC(=O)[C@@H](N)Cc1ccc(O)cc1`, the pKi is 5.77 in assay [1] and 7.55 on Mu-type opioid receptor.

Turning to `CC(C)C[C@H](NC(=O)[C@H](Cc1ccccc1)N1CN(C(=O)CNC(=O)[C@@H](N)Cc2ccc(O)cc2)CC1=O)C(N)=O`, the pKi was less than 5.00 in assay [1] and 6.63 at Mu-type opioid receptor.

For the compound `CC(C)C[C@H](NC(=O)[C@H](Cc1ccccc1)NC(=O)CN1CN(C(=O)[C@@H](N)Cc2ccc(O)cc2)CC1=O)C(N)=O`, the pKi in assay [1] is less than 5.00; at Mu-type opioid receptor, 7.04.

As for `CC(C)C[C@@H](C(N)=O)N(C)C(=O)[C@H](Cc1ccccc1)NC(=O)CNC(=O)CNC(=O)[C@@H](N)Cc1ccc(O)cc1`, the pKi is 5.65 in assay [1] and 7.34 on Mu-type opioid receptor.

In the case of `CNC(=O)[C@H](CC(C)C)NC(=O)[C@H](Cc1ccccc1)NC(=O)CNC(=O)CNC(=O)[C@@H](N)Cc1ccc(O)cc1`, the negative-log Ki (pKi) in assay [1] is 5.86; on Mu-type opioid receptor it was 6.84.

As for `CC(C)C[C@H](NC(=O)[C@H](Cc1ccccc1)NC(=O)CNC(=O)CN1CN[C@@H](Cc2ccc(O)cc2)C1=O)C(N)=O`, the figures for the pKi (in assay [1]; at Mu-type opioid receptor) were less than 5.00 and 6.26, respectively.

`CC(C)C[C@H]1C(=O)NCN1C(=O)[C@H](Cc1ccccc1)NC(=O)CNC(=O)CNC(=O)[C@@H](N)Cc1ccc(O)cc1` (H-YGGF-X1): the pKi in assay [1] is 5.54; on Mu-type opioid receptor, 8.40.
